In ChEMBL document CHEMBL5678818, “Discovery of potent SOS1 inhibitors that block RAS activation via disruption of the RAS-SOS1 interaction” (Proc Natl Acad Sci U S A, 2019):

How the values were obtained:
[1] = molecular target: Cyclin-dependent kinase 11B (Homo sapiens) (UniProt P21127); assay: Inhibition of CDC2L1 (unknown origin) assessed as residual activity at 1000 nM by KINOMEscan analysis relative to control
[2] = molecular target: Bone morphogenetic protein receptor type-1B (Homo sapiens) (UniProt O00238); assay: Inhibition of BMPR1B (unknown origin) assessed as residual activity at 1000 nM by KINOMEscan analysis relative to control
Sequence of Bone morphogenetic protein receptor type-1B (Homo sapiens) (O00238 whole entry): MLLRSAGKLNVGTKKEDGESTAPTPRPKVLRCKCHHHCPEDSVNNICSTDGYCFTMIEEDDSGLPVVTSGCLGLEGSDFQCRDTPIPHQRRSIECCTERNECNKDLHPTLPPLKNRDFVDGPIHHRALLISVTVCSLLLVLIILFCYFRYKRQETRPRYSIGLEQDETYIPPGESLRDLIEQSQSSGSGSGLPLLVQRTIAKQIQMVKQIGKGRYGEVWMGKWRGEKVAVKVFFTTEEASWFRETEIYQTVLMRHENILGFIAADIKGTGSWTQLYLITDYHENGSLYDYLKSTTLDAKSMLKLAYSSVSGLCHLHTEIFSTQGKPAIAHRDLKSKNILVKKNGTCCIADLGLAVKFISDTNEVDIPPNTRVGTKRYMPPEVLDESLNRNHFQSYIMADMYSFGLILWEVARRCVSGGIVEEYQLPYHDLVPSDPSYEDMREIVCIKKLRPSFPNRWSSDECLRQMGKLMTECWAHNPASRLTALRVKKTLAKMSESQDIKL

[3] = molecular target: Serine/threonine-protein kinase pim-2 (Homo sapiens) (UniProt Q9P1W9); assay: Inhibition of PIM2 (unknown origin) assessed as residual activity at 1000 nM by KINOMEscan analysis relative to control
Sequence of Serine/threonine-protein kinase pim-2 (Homo sapiens) (Q9P1W9 whole entry, looked up): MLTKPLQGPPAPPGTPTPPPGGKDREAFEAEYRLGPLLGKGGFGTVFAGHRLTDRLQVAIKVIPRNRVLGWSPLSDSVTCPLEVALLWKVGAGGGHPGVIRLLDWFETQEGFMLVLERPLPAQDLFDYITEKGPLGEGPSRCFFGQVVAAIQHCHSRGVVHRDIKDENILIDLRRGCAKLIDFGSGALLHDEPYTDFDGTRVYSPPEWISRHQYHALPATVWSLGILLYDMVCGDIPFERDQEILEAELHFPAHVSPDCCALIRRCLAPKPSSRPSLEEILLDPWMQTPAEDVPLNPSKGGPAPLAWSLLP

[4] = molecular target: Death-associated protein kinase 2 (Homo sapiens) (UniProt Q9UIK4); assay: Inhibition of DAPK2 (unknown origin) assessed as residual activity at 1000 nM by KINOMEscan analysis relative to control
Sequence of Death-associated protein kinase 2 (Homo sapiens) (Q9UIK4 whole entry, looked up): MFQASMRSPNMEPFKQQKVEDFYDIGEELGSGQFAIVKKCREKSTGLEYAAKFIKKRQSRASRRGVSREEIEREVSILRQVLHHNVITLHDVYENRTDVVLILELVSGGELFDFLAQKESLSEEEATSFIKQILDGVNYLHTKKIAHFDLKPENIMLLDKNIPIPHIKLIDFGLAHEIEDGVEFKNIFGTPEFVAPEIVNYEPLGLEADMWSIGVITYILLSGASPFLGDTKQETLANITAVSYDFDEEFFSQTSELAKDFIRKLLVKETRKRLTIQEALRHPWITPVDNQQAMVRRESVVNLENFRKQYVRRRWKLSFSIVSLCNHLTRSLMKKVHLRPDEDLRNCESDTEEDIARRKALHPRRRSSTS

[5] = molecular target: T1, Dual specificity mitogen-activated protein kinase kinase 6 (Homo sapiens) (UniProt P52564); assay: Inhibition of MEK6 (unknown origin) assessed as residual activity at 1000 nM by KINOMEscan analysis relative to control
T1 sequence (whole entry): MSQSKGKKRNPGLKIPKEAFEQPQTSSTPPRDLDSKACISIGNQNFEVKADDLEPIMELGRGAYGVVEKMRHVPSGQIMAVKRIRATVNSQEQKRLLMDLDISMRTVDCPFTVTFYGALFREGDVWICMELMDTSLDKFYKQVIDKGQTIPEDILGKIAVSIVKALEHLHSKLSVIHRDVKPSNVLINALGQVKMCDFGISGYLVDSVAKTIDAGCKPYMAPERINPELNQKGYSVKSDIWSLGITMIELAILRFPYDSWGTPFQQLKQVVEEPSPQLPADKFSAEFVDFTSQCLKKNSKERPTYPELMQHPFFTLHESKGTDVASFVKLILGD

[6] = molecular target: T2, Myotonin-protein kinase (Homo sapiens) (UniProt Q09013); assay: Inhibition of DMPK (unknown origin) assessed as residual activity at 1000 nM by KINOMEscan analysis relative to control
T2 sequence (whole entry): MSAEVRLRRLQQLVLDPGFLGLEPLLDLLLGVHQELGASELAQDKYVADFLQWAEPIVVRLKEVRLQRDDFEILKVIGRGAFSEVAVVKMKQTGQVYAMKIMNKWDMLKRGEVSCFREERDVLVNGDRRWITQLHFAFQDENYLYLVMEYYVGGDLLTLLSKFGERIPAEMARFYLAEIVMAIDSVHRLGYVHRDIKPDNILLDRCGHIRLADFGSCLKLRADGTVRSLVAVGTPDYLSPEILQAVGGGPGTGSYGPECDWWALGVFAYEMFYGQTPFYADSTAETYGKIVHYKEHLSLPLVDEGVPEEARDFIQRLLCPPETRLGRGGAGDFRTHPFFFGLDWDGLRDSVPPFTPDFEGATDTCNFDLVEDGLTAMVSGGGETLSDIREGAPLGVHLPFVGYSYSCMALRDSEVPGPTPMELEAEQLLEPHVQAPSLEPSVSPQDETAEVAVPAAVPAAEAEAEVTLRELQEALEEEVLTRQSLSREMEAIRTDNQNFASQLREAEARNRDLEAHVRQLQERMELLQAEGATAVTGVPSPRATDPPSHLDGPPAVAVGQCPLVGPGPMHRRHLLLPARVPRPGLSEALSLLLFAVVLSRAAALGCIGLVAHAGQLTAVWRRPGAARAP

[7] = molecular target: Mitogen-activated protein kinase kinase kinase kinase 1 (Homo sapiens) (UniProt Q92918); assay: Inhibition of HPK1 (unknown origin) assessed as residual activity at 1000 nM by KINOMEscan analysis relative to control
Sequence of Mitogen-activated protein kinase kinase kinase kinase 1 (Homo sapiens) (Q92918 whole entry, looked up): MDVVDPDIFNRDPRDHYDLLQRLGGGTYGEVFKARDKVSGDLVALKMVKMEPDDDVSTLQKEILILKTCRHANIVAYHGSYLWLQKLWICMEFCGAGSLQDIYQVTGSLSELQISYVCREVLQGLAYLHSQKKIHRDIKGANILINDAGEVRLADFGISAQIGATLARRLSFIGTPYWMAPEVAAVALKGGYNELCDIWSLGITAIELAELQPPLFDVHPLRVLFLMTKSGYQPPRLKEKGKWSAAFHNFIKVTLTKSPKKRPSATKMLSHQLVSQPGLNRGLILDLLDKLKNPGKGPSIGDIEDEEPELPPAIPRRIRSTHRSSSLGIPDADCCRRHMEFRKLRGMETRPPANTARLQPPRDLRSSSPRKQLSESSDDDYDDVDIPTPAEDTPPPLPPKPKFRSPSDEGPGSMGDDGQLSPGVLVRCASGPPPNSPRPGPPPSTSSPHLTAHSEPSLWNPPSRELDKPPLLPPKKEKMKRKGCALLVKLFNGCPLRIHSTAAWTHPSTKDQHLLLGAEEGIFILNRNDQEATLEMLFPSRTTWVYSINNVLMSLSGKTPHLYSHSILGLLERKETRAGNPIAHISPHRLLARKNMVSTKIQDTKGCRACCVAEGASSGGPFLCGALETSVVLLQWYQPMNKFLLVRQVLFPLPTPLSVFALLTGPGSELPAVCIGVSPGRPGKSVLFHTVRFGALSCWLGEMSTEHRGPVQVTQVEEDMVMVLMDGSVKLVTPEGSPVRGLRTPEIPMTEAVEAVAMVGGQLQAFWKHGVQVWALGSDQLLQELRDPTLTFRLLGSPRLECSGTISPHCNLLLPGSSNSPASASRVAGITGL

[8] = molecular target: T3, Calcium/calmodulin-dependent protein kinase type IV (Homo sapiens) (UniProt Q16566); assay: Inhibition of CAMK4 (unknown origin) assessed as residual activity at 1000 nM by KINOMEscan analysis relative to control
T3 sequence (whole entry): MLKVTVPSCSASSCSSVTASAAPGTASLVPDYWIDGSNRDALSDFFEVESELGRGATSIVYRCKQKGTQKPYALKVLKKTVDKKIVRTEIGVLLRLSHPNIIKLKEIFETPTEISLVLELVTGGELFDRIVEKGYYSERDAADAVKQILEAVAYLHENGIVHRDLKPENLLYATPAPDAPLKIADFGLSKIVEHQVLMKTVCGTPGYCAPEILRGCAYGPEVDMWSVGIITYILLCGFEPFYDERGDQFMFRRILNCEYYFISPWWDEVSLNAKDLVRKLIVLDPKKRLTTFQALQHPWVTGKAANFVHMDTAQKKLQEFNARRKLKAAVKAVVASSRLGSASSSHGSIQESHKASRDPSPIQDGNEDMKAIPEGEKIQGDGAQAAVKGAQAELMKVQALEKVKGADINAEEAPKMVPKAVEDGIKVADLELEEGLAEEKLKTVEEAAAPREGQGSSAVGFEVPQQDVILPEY

[9] = molecular target: Epithelial discoidin domain-containing receptor 1 (Homo sapiens) (UniProt Q08345); assay: Inhibition of DDR1 (unknown origin) assessed as residual activity at 1000 nM by KINOMEscan analysis relative to control
Sequence of Epithelial discoidin domain-containing receptor 1 (Homo sapiens) (Q08345 whole entry, the tested form may be a part): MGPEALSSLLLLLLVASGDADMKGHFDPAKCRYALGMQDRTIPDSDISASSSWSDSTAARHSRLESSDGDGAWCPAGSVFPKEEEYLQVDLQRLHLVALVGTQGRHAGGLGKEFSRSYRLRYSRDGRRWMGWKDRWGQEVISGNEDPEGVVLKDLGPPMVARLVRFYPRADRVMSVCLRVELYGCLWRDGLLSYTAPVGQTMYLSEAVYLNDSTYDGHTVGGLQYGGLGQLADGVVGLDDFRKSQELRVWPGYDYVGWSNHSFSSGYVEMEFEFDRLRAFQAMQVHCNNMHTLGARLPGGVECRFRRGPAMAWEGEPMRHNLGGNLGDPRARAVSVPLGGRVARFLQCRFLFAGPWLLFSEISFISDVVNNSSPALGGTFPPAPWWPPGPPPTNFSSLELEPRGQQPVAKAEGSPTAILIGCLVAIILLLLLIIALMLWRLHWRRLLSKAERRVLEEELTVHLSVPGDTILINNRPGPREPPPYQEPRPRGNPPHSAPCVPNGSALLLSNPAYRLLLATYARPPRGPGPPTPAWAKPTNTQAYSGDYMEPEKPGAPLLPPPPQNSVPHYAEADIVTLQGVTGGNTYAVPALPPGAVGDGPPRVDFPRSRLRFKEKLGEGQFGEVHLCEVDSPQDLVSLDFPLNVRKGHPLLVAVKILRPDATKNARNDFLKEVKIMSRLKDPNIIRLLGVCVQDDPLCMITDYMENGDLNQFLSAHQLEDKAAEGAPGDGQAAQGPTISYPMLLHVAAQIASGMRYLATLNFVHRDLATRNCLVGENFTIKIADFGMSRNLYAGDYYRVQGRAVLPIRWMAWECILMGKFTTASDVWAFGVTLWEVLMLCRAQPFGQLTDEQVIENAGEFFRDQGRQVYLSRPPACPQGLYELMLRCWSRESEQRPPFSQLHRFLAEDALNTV

[10] = test system: Epidermal growth factor receptor (Homo sapiens), P00533 [T790M]; assay: Inhibition of EGFR T790M mutant (unknown origin) assessed as residual activity at 1000 nM by KINOMEscan analysis relative to control
[11] = molecular target: Tyrosine-protein kinase JAK2 (Homo sapiens) (UniProt O60674); assay: Inhibition of JAK2 JH1 catalytic domain (unknown origin) assessed as residual activity at 1000 nM by KINOMEscan analysis relative to control
Sequence of Tyrosine-protein kinase JAK2 (Homo sapiens) (O60674 whole entry, the tested form may be a part): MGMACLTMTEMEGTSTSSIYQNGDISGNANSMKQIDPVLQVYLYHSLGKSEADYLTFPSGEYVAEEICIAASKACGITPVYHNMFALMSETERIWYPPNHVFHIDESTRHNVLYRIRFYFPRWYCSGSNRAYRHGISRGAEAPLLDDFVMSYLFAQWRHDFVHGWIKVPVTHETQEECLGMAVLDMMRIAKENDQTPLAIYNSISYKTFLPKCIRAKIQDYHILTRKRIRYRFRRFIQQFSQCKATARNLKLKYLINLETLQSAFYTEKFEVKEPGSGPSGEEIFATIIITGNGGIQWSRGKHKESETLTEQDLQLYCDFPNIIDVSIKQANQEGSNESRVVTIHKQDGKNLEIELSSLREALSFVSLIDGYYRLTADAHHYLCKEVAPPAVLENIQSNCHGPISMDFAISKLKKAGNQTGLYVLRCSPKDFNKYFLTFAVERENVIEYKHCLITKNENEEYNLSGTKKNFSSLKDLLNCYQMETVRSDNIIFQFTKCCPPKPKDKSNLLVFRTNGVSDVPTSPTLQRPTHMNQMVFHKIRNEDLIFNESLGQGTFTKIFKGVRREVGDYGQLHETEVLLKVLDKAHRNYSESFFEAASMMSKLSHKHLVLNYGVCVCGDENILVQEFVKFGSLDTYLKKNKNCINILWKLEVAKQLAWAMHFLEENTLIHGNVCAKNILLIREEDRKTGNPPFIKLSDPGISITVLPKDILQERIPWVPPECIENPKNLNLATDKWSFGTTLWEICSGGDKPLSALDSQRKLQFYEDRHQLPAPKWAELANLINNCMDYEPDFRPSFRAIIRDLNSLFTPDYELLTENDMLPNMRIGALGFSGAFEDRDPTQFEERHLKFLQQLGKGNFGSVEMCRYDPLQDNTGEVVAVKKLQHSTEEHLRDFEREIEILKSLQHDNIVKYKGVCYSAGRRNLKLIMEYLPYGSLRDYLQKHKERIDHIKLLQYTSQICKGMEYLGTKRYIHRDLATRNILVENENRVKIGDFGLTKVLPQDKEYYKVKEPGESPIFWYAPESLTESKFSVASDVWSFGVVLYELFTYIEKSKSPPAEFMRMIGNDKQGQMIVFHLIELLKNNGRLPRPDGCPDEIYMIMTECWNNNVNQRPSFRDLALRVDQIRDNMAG

Sequence of Cyclin-dependent kinase 11B (Homo sapiens) (P21127 whole entry): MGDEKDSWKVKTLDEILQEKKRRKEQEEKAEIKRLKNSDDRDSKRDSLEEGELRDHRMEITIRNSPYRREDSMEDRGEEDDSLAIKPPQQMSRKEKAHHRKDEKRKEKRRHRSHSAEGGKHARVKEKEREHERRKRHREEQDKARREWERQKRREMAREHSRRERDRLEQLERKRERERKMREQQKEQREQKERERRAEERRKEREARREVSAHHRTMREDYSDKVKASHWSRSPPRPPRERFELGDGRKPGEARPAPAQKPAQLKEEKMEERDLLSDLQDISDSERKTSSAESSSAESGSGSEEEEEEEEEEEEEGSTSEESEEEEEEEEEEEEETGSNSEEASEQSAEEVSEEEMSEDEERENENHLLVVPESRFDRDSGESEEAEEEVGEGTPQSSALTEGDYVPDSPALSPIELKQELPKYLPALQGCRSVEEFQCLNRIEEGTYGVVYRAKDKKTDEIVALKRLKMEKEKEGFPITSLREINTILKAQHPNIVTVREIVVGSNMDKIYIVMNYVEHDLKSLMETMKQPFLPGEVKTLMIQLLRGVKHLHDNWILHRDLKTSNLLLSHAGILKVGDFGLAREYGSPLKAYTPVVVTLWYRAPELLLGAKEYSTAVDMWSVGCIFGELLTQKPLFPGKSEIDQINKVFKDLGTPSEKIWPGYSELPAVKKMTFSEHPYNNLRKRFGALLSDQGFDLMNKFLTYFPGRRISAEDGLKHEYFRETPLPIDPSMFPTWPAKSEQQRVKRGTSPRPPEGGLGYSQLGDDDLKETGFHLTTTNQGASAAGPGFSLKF

Structure (SMILES) | Activity [1] [%] | Activity [2] [%] | Activity [3] [%] | Activity [4] [%] | Activity [5] [%] | Activity [6] [%] | Activity [7] [%] | Activity [8] [%] | Activity [9] [%] | Activity [10] [%] | Activity [11] [%]
COc1cc2nc(C)nc(N[C@H](C)c3cccc(-c4cn[nH]c4)c3)c2cc1OC | 94 | 98 | 88 | 73 | 91 | 87 | 97 | 92 | 95 | 87 | 74
COc1cc2ncnc(N[C@H](C)c3cccc4ccccc34)c2cc1OC | 83 | 94 | 96 | 99 | 100 | 100 | 100 | 100 | 100 | 81 | 89
